Experimental findings from paper PMC12649225, “Machine Learning-Identified Potent Antimicrobial Peptides Against Multidrug-Resistant Bacteria and Skin Infections” (Antibiotics, 2025) are described below.

Residues, ends and D or L forms follow the SMILES beside them.

Series [1] has as its system BJ human skin fibroblast cells. In words: LDH leakage assay (membrane integrity). The conditions noted are these: lowest concentration causing >30% LDH leakage; BJ fibroblasts; 24 h; DMEM with 2% FBS; 0.05-60 µM. The procedure:
BJ human skin fibroblast cells (ATCC CRL-2522; RRID: CVCL_3653; LGC Standards, Germany (September 2023)) were cultured in Dulbecco’s Modified Eagle Medium (DMEM; Gibco, Waltham, MA, USA) supplemented with 10% (v/v) foetal bovine serum (FBS; Sigma-Aldrich) and 1% (v/v) penicillin/streptomycin (pen/strep; Gibco). Cell suspensions (5 × 10^5 cells/mL) were seeded into 96-well plates (100 μL/well; Thermo Scientific, Waltham, MA, USA) and allowed to adhere for 24 h. Monolayers were then exposed to two-fold serial dilutions of GDST peptides, their RI variants, and reference peptides (final concentrations: 0.05 to 60 µM) in fresh DMEM with 2% (v/v) FBS for 24 h at 37 °C in a humidified atmosphere with 5% CO2.
Cell viability and membrane integrity were assessed using the water-soluble tetrazolium salt (WST-1; Roche, Basel, Switzerland) assay and the lactate dehydrogenase (LDH; Abcam, Cambridge, UK) assay, respectively, according to manufacturer instructions. Results were expressed as percentages of metabolic activity and LDH leakage relative to untreated control cells and the positive lysis control, respectively. The cytotoxic concentration was defined as the lowest peptide concentration causing <70% metabolic activity and >30% LDH leakage. All experiments were performed in triplicate.
(In general: LDH in the medium is a marker of cell lysis.)

For series [2], the system named is A. baumannii RUH875 biofilm. Put plainly: Biofilm killing. Type of series: cell-based, Acinetobacter baumannii. The conditions noted are these: for Concentration killing ≥3 log CFU of A. baumannii biofilm within 2 h / Concentration giving complete eradication of A. baumannii biofilm, 24 h treatment: 24 h biofilm; for Concentration killing ≥3 log CFU of A. baumannii biofilm within 2 h: 2 h treatment in PBS, 1.88-120 μM, vs untreated biofilm; for Concentration giving complete eradication of A. baumannii biofilm, 24 h treatment: 24 h treatment in PBS; for A. baumannii biofilm killing, 24 h treatment (in words): up to 120 µM. The procedure: Mid-logarithmic phase cultures of A. baumannii RUH875 or S. aureus JAR060131 were diluted to 1 × 10^8 CFU/mL in RPMI supplemented with 1% glucose. A total of 100 μL of each suspension was added to flat-bottom polystyrene 96-well microplates (Costar) and incubated under static conditions at 37 °C in a humidified atmosphere for 24 h to allow biofilm formation. After 24 h, planktonic bacteria were removed, and wells were carefully washed with 100 μL PBS [60]. […] Control samples were exposed to 100 μL of PBS only.
Biofilms were treated at 37 °C for either 2 or 24 h. […] Plates were sealed and sonicated for 5 min (Elmasonic, Singen, Germany; 45 kHz) at room temperature to dislodge adherent bacteria. […] Quantitative cultures were performed by plating serial 10-fold dilutions on sheep blood agar, and results were expressed as log10 CFU per well. The lower limit of detection was three CFU. Each condition was tested in six replicates.

The test system of the next series is A. baumannii RUH875. Put plainly: microbe, parasite or virus in culture. The conditions noted are these: RPMI, 48 h. Type of series: cell-based, Acinetobacter baumannii. How it is done: (§1) The potential for resistance development to GDST-038, GDST-045, and their RI variants was assessed as described by Habets and Brockhurst. Resistance development to the antibiotics rifampicin and ciprofloxacin (both from Sigma-Aldrich) was evaluated for comparison. Briefly, 10 μL of a mid-logarithmic phase culture of A. baumannii RUH875 or S. aureus JAR060131 was added to 90 μL of peptide (final concentrations: 0.23 to 120 μM) or antibiotic (final concentrations: 0.03 to 256 μg/mL) solution in RPMI, in 96-well polypropylene round-bottom plates (Costar). All incubations were performed in quadruplicate. Plates were sealed with breathable seals (Greiner) and incubated at 37 °C with shaking at 120 rpm in a humidified environment for 18 h (S. aureus) or 48 h (A. baumannii).
(§2) The minimum inhibitory concentration (MIC), defined as the lowest concentration that inhibited visible bacterial growth, was then determined. Subsequently, 2 μL from the 0.5-fold MIC condition was transferred to fresh medium containing a concentration series ranging from 0.5- to 8-fold the new MIC. This procedure was repeated over 22 consecutive passages to monitor resistance development.

The subject of the next series is S. aureus JAR060131. Put plainly: microbe, parasite or virus in culture. Type of series: cell-based, Staphylococcus aureus. The conditions noted are these: RPMI, 18 h. The procedure:
as §1, §2

Regarding `CC[C@@H](C)[C@@H](NC(=O)[C@@H](C)NC(=O)[C@@H](CCCCN)NC(=O)[C@@H](CCCCN)NC(=O)[C@@H](Cc1c[nH]c2ccccc12)NC(=O)[C@@H](Cc1c[nH]c2ccccc12)NC(=O)[C@@H](CCCNC(=N)N)NC(=O)[C@@H](CC(C)C)NC(=O)[C@@H](CC(C)C)NC(C)=O)C(=O)N[C@H](CCCCN)C(=O)N[C@@H](C(=O)N[C@H](Cc1c[nH]c2ccccc12)C(=O)N[C@H](CCCNC(=N)N)C(=O)N[C@H](CCCCN)C(N)=O)C(C)C` [GDST-038-RI] (HELM PEPTIDE1{[ac].[dL].[dL].[dR].[dW].[dW].[dK].[dK].[dA].[dI].[dK].[dV].[dW].[dR].[dK].[am]}$$$$V2.0; N-terminus and C-terminus assumed), the “Cytotoxicity LDH Leakage >30%” value in series [1] is listed as 3.75 µM. For the same compound, in series [2], the “Concentration killing ≥3 log CFU of A. baumannii biofilm within 2 h” value (from here on “Concentration killing ≥3 log CFU”) was found to be 60 µM and the “Concentration giving complete eradication of A. baumannii biofilm, 24 h treatment” value is reported as at least 60 µM.
With `CC[C@@H](C)[C@@H](NC(=O)[C@@H](CC(C)C)NC(=O)[C@@H](CCCCN)NC(=O)[C@@H](CCCCN)NC(=O)[C@H](NC(=O)[C@@H](Cc1c[nH]c2ccccc12)NC(=O)[C@@H](CCCNC(=N)N)NC(=O)[C@@H](Cc1ccccc1)NC(=O)[C@@H](CC(C)C)NC(C)=O)C(C)C)C(=O)N[C@H](CCCCN)C(=O)N[C@@H](C(=O)N[C@H](Cc1c[nH]c2ccccc12)C(=O)N[C@H](CCCNC(=N)N)C(=O)N[C@H](CCCCN)C(N)=O)C(C)C` [GDST-045-RI] (HELM PEPTIDE1{[ac].[dL].[dF].[dR].[dW].[dV].[dK].[dK].[dL].[dI].[dK].[dV].[dW].[dR].[dK].[am]}$$$$V2.0; N-terminus and C-terminus assumed), the “Cytotoxicity LDH Leakage >30%” value in series [1] is listed as 3.75 µM. Also, in series [2], the “Concentration killing ≥3 log CFU” value is given as at least 30 µM and the “Concentration giving complete eradication of A. baumannii biofilm, 24 h treatment” value came out at 120 µM.
Ac-KRWVKIAKKWWRLL-NH2 [GDST-038]: the “Cytotoxicity LDH Leakage >30%” value in series [1] is listed as 3.75 µM. The “MIC A. baumannii, stable over 22 passages” value in the series with A. baumannii RUH875 came to 0.47 µM. In addition, the “MIC S. aureus at the 22nd passage” value against S. aureus JAR060131 was found to be 1.88 µM. Moreover, the “MIC S. aureus at the 1st passage” value against S. aureus JAR060131 (median of four replicates) stood at 0.94 µM. In addition, the “Concentration killing ≥3 log CFU” value in series [2] is on record as 120 µM. Further, the “A. baumannii biofilm killing, 24 h treatment (in words)” value in series [2] (24 h treatment) is reported as “did not cause significant biofilm CFU reduction”.
For the compound Ac-KRWVKILKKVWRFL-NH2 [GDST-045], in series [1], the “Cytotoxicity LDH Leakage >30%” value came to 3.75 µM. For the same compound, the “MIC A. baumannii at passage 16 (peak)” value with A. baumannii RUH875 is 7.50 µM. Further, the “MIC A. baumannii at the 1st passage” value in the series on A. baumannii RUH875 (median of four replicates) is given as 0.94 µM. For the same compound, the “MIC A. baumannii at the 22nd passage” value with A. baumannii RUH875 (serial passage at sub-inhibitory concentrations) worked out at 0.47 µM. Further, the “MIC S. aureus, constant throughout all passages” value in the series on S. aureus JAR060131 (22 passages) is reported as 0.47 µM. Besides, in series [2], the “Concentration killing ≥3 log CFU” value is recorded as 60 µM. Moreover, the “Reduction in A. baumannii biofilm CFU, 24 h treatment” value in series [2] (at ≥60 µM, 24 h treatment) was found to be 3.5 log.
In the case of “Ac-LKRVWKRVFKLLKRYWRQLKKPVR-NH2 (N-terminus and C-terminus assumed) [SAAP-148, reference compound]”, in series [1], the “Cytotoxicity LDH Leakage >30%” value worked out at 1.88 µM. In addition, the “Concentration killing ≥3 log CFU” value in series [2] is at least 15 µM. The “A. baumannii biofilm killing, 24 h treatment (in words)” value in series [2] (24 h treatment) was “complete eradication”.
